Source: patent publication US9000191B2, “Serotonin reuptake inhibitors” (Theravance Biopharma R&D IP, LLC, priority 2010, dated 2015)

Legend:
hSERT = target: T1, hSERT (Homo sapiens, UniProt P31645); assay: hSERT neurotransmitter uptake assay; type: cell-based; conditions: serotonin reuptake inhibition, HEK293-hSERT cells; read-out: SERT pIC50 (converted)
T1 construct: expressed in transfected cells; host or cells: HEK293 (stably transfected, G418 selection)
Protocol: Neurotransmitter uptake assays were used to measure inhibition of ^3H-serotonin (^3H-5-HT) uptake into cells expressing hSERT in order to determine the pIC50 values of test compounds at the transporter, similar to the procedures described in Tsuruda et al. (2010) Journal of Pharmacological and Toxicological Methods 61(2):192-204.
HEK293 cells stably-transfected with human recombinant SERT (HEK293-hSERT) were grown in DMEM medium supplemented with 10% dialyzed fetal bovine serum, 100 μg/ml penicillin, 100 μg/ml streptomycin, 2 mM L-glutamine, and 250 μg/ml of the aminoglycoside antibiotic G418. Cells were incubated in a 5% CO2, humidified incubator at 37° C.
The neurotransmitter uptake assay was performed in a 96-well assay plate in a total volume of 100 μL assay buffer containing HEK293-hSERT cells (7500-10,000 cells/well; plated ˜2 hours prior to assay initiation. Neurotransmitter Transporter Uptake Assay dye (0.5 μM), and eleven different concentrations of compound ranging from 10 μM to […] was used. Non-specific uptake was determined in the presence of indatraline (2.5 μM). The final assay buffer was 12.5 mM Tris-HCl, 5 mM HEPES, 3 mM NaHCO3, 0.3 mM KH2PO4, 0.25 mM Na2HPO4, 130 mM NaCl, 5 mM KCl, 1 mM CaCl2, 0.4 mM MgCl2, 0.3 mM MgSO4, 4 mM D-glucose, 0.025% BSA, 0.1 mM ascorbic acid, pH 7.4.
In pre-incubation studies, test compound was added to cells for 30 minutes at 37° C. prior to the addition of fluorescent substrate. For determination of inhibitory potency, a 10-30 minute endpoint substrate accumulation was determined by fluorescence spectroscopy using a Safire (Tecan Group Ltd., Minnendorf, Switzerland) and analysis was performed as described in Tsuruda et al., supra. For real-time measurements, compounds were either preincubated (as above) or mixed with substrate prior to addition, and kinetic measurements, relative fluorescence units (RFU integrated over 0.5 ms), were made using a cycle time of 1 min.

[1] = Peripheral selectivity (Assay 4): free plasma versus free brain exposure after oral dosing; type: in vivo; conditions: fed male Sprague-Dawley rats, 0.5-24 hours post-dose, unbound fractions by equilibrium dialysis
Protocol: Fed male Sprague-Dawley rats (n=1/timepoint) were dosed orally with a test compound. Blood (via cardiocentesis), cerebrospinal fluid (CSF) (via cisternae magna) and brain were collected from an animal at 0.5, 1, 2, 4, 8 and 24 hours post-dose. Total plasma, CSF and brain concentrations were determined by LC-MS/MS. The pharmacokinetic parameters were assessed by non-compartmental methods using WinNonlin (Version 5.3, Pharsight, Mountain View, Calif.). The unbound fraction in plasma and brain was determined by equilibrium dialysis. Free plasma and free brain concentrations were determined by multiplying the total concentration in plasma or brain by its respective unbound fraction. CSF was assumed to be unbound, due to the absence of protein. Peripheral selectivity was assessed by comparing the unbound exposures (Cmax and AUC) in free plasma versus CSF and/or free brain.

T1 sequence (P31645 whole entry): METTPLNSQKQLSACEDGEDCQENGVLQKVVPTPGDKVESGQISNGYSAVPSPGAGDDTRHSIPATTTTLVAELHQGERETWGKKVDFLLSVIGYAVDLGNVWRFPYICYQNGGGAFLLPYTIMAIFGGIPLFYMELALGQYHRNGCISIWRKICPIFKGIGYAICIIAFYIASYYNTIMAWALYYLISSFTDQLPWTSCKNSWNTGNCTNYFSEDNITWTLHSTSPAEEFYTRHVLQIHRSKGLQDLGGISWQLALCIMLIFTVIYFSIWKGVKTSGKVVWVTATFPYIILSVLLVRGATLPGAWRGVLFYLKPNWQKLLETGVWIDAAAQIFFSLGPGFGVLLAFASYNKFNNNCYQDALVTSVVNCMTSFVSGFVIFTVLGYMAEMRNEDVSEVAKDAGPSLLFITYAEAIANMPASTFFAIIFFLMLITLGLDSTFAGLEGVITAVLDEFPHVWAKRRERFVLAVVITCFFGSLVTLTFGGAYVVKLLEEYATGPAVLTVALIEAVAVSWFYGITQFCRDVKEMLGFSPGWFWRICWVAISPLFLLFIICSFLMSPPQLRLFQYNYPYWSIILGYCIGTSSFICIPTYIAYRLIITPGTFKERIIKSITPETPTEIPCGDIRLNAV

SMILES | IC50 (hSERT) [nM] | Free plasma AUC/Free brain AUC [1]
CS(=O)(=O)C[C@@H](Oc1ccc(C(F)(F)F)cc1)[C@H]1CCNC1 [Example 1, (S)-3-[(S)-2-Methanesulfonyl-1-(4-trifluoromethylphenoxy)ethyl]pyrrolidine] | ≤ 10 | >70
CS(=O)(=O)C[C@@H](Oc1ccc(C(F)(F)F)cn1)[C@@H]1CCNC1 [Example 3] | ≤ 100 | >20
CCS(=O)(=O)C[C@@H](Oc1ccc(C(F)(F)F)cc1)[C@H]1CCNC1 [Example 2-12, (S)-3-[(S)-2-Ethanesulfonyl-1-(4-trifluoromethyl-phenoxy)ethyl]pyrrolidine] | ≤ 10 | 
CS(=O)(=O)C[C@@H](Oc1ccc(C(F)(F)F)nc1)[C@@H]1CCNC1 [Example 5] | ≤ 100 | 
CS(=O)(=O)C[C@H](Oc1ccc(Cl)cn1)[C@H]1CCNC1 (stereo in doubt) [Example 4-2, 5-Chloro-2-((S)-2-methanesulfonyl-1-(R)-pyrrolidin-3-ylethoxy)pyridine] | ≤ 100 | 
O=S(=O)(C[C@@H](Oc1ccc(C(F)(F)F)cc1)[C@H]1CCNC1)c1ccncc1 [Example 2-19, 4-[(S)-2-(S)-Pyrrolidin-3-yl-2-(4-trifluoromethylphenoxy)ethanesulfonyl]pyridine] | ≤ 100 | 
CS(=O)(=O)C[C@@H](Oc1ccc([N+](=O)[O-])cc1)[C@@H]1CCNC1 [Example 2-7, (R)-3-[(S)-2-Methanesulfonyl-1-(4-nitro-phenoxy)ethyl]pyrrolidine] | ≤ 100 | >20

The next lines start with the values.

IC50 (hSERT) [nM] | Free plasma AUC/Free brain AUC [1] | SMILES
≤ 100 | >10 | CS(=O)(=O)C[C@H](Oc1ccc([N+](=O)[O-])cc1)[C@@H]1CCNC1 [Example 2-8, (R)-3-[(R)-2-Methanesulfonyl-1-(4-nitro-phenoxy)ethyl]pyrrolidine]
≤ 100 |  | CS(=O)(=O)C[C@H](Oc1ccc(OC(F)(F)F)cc1)[C@H]1CCNC1 [Example 2-10, (S)-3-[(R)-2-Methanesulfonyl-1-(4-trifluoromethoxyphenoxy)ethyl]pyrrolidine]
≤ 100 |  | CS(=O)(=O)CCC(Oc1ccc(C(F)(F)F)cc1)[C@H]1CCNC1 (single isomer, unassigned) [Example 8-3]
≤ 10 |  | O=S(=O)(CCO)C[C@@H](Oc1ccc(C(F)(F)F)cc1)[C@H]1CCNC1 [Example 2-15, 2-[(S)-2-(S)-Pyrrolidin-3-yl-2-(4-trifluoromethylphenoxy)ethanesulfonyl]ethanol]
